Measured values reported in patent US7678810B2, “Thiazole derivative” (Taisho Pharmaceutical Co., Ltd, priority 2004, dated 2010).
Counter-ions that a name gives are not always drawn.

| SMILES | melting point |
| --- | --- |
| Cc1csc(-c2nc(C(=O)Nc3ccccc3)[nH]c2-c2ccc3c(c2)OCO3)n1 [Compound 36] | 222 to 222.5 °C |
| Cc1csc(-c2nc(-c3ccc(C#N)cc3)[nH]c2-c2ccc(F)cc2)n1 [Compound 17] | 283.5 to 286 °C |
| CCCC(=O)NCCCc1nc(-c2nc(C)cs2)c(-c2ccc3c(c2)OCO3)[nH]1 [Compound 30] | 134.5 to 138.5 °C |
| Cc1csc(C#Cc2ccc3c(c2)OCO3)n1 [Compound 217] | 111.5 to 112 °C |
| Cc1csc(-c2nc(C3CCC(=O)N3)[nH]c2-c2ccc3ncsc3c2)n1 (stereo not shown) [Compound 230] | 263 to 268 °C (dec.) |
| Cc1csc(-c2nc(C3CCC(=O)N3)[nH]c2-c2ccc3ncsc3c2)n1 (stereo not shown) [Compound 229] | 273 to 275 °C (dec.) |
| Cc1csc(-c2nc(-c3ccc(C(N)=O)cc3)[nH]c2-c2ccc(O)cc2)n1 [Compound 49] | > 300 °C |
| CCCCCCc1nc(-c2nc(C)cs2)c(-c2ccc3ncsc3c2)[nH]1 [Compound 64] | 129 to 130.5 °C |
| Cc1nc(-c2nc(C(F)(F)F)cs2)c(-c2ccc3ncsc3c2)[nH]1 [Compound 244] | 190.5 to 192 °C |
| Cc1csc(-c2nc(CNC(=O)C3CCN(C)CC3)[nH]c2-c2ccc3ncsc3c2)n1 [Compound 117] | 204 to 205.5 °C |
| CC(=O)c1nc(-c2nc(-c3ccc(C(N)=O)cc3)[nH]c2-c2ccc3c(c2)OCO3)cs1 [Compound 7] | 153 to 159 °C |
| Cc1csc(-c2nc(CCC(=O)NCCCN3CCN(C)CC3)[nH]c2-c2ccc3ncsc3c2)n1 [Compound 153] | 188 to 189 °C |
| Cc1csc(-c2nc(CCC(=O)N3CCN(CCN4CCOCC4)CC3)[nH]c2-c2ccc3ncsc3c2)n1 [Compound 157] | 164.5 to 166 °C |
| COc1ccc(CC(=O)NCc2nc(-c3nc(C)cs3)c(-c3ccc4c(c3)OCO4)[nH]2)cc1 [Compound 26] | 165.5 to 169.5 °C |
| Cc1csc(-c2nc(CCN)[nH]c2-c2ccc3c(c2)OCO3)n1 [Compound 27] | 155.5 to 157.5 °C |
| CC(O)c1nc(-c2nc(-c3ccc(C(N)=O)cc3)[nH]c2-c2ccc3c(c2)OCO3)cs1 (stereo not shown) [Compound 6] | 140 to 148 °C |
| CCN(CC)C(=O)OCc1nc(-c2nc(C)cs2)c(-c2ccc3ncsc3c2)[nH]1 (as salt: HCl) [Compound 237] | 119 to 124 °C |
| COc1ccc(CNC(=O)CCCCc2nc(-c3nc(C)cs3)c(-c3ccc4c(c3)OCO4)[nH]2)cc1 [Compound 44] | 174 to 175 °C |
| Cc1csc(-c2nc(-c3ccc(C(N)=O)cc3)[nH]c2-c2ccc(F)cc2)n1 [Compound 18] | 281 to 281.5 °C |
| O=C(C(=O)c1nc(C(F)(F)F)cs1)c1ccc2ncsc2c1 [Compound 251] | 163.5 to 164.5 °C |
| Cc1csc(-c2nc(CCC(=O)NCCN3CCCC3)[nH]c2-c2ccc3ncsc3c2)n1 [Compound 152] | 171 to 173 °C |

| SMILES | melting point |
| --- | --- |
| NC(=O)c1ccc(-c2nc(-c3nccs3)c(-c3ccccn3)[nH]2)cc1 [Compound 4] | 255.5 to 256 °C |
| NC(=O)c1ccc(-c2nc(-c3nccs3)c(-c3ccc4c(c3)OCO4)[nH]2)cc1 [Compound 2] | 240 to 249 °C |
| CCCC(=O)NCc1nc(-c2nc(C)cs2)c(-c2ccc(OC)c(OCc3ccccc3)c2)[nH]1 [Compound 104] | 176 to 177 °C |
| Cc1csc(-c2nc(C)n(Cc3ccc(OCCN(C)C)cc3)c2-c2ccc3ncsc3c2)n1 [Compound 233] | 146.5 to 148 °C |
| Cc1csc(-c2nc(CCC(=O)N3CCN(C)CC3)[nH]c2-c2ccc3ncsc3c2)n1 [Compound 155] | 201 to 201.5 °C |
| Cc1csc(-c2nc(CCC(=O)N3CCCCC3)[nH]c2-c2ccc3ncsc3c2)n1 [Compound 148] | 179 to 180 °C |
| Cc1csc(-c2nc(CCCN3CCOCC3)[nH]c2-c2ccc3c(c2)OCO3)n1 (as salt: salt) [Compound 76] | 118.5 to 128.5 °C |
| CCCC(=O)NCCc1nc(-c2nc(C)cs2)c(-c2ccc3c(c2)OCO3)[nH]1 [Compound 28] | 148 to 150 °C |
| CCCNC(=O)CCc1nc(-c2nc(C)cs2)c(-c2ccc3c(c2)OCO3)[nH]1 [Compound 38] | 106.5 to 108.5 °C |
| CCCC(=O)NCc1nc(-c2nc(C)cs2)c(-c2ccc(O)cc2)[nH]1 [Compound 101] | 135.5 to 136.5 °C |
| NC(=O)c1ccc(-c2nc(-c3nc(Br)cs3)c(-c3ccc4c(c3)OCO4)[nH]2)cc1 [Compound 13] | 273 to 275.5 °C |
| Cc1csc(-c2nc(CCC(=O)NCCN3CCCCC3)[nH]c2-c2ccc3ncsc3c2)n1 [Compound 151] | 114 to 119 °C |
| Cc1csc(-c2nc(CNC(=O)NC3CCCC3)[nH]c2-c2ccc3ncsc3c2)n1 [Compound 183] | 185.5 to 188 °C |
| N#Cc1ccc(-c2nc(-c3nccs3)c(-c3ccccn3)n2O)cc1 [Compound 202] | 248 to 251 °C (dec.) |
| Cc1csc(-c2nc(C)n(Cc3ccc(O)cc3)c2-c2ccc3ncsc3c2)n1 [Compound 232] | 215.5 to 218.5 °C |
| Cc1csc(C(=O)C(=O)c2ccc3c(c2)OCO3)n1 [Compound 203] | 131.5 to 132.5 °C |
| CCCNC(=O)CCCc1nc(-c2nc(C)cs2)c(-c2ccc3c(c2)OCO3)[nH]1 [Compound 40] | 75 to 79 °C |
| CCCNC(=O)c1nc(-c2nc(C)cs2)c(-c2ccc3c(c2)OCO3)[nH]1 [Compound 35] | 199.6 to 200 °C |
| COc1ccc(CNC(=O)CCCCc2nc(-c3nc(C)cs3)c(-c3ccc4ncsc4c3)[nH]2)cc1 [Compound 173] | 140 to 140.5 °C |
| CC(=O)Nc1nc(-c2nc(C)cs2)c(-c2ccc3c(c2)OCO3)[nH]1 [Compound 20] | 169 to 173 °C |

Next, values leading:

| melting point | SMILES |
| --- | --- |
| 212.5 to 213.5 °C | CCC(C)(C)C(=O)NCc1nc(-c2nc(C)cs2)c(-c2ccc3ncsc3c2)[nH]1 [Compound 111] |
| 222.5 to 223 °C | CCN(CC)C(=O)NCc1nc(-c2nc(C)cs2)c(-c2ccc3ncsc3c2)[nH]1 [Compound 181] |
| 160 to 160.5 °C | Cc1csc(-c2nc(CNC(=O)CC(C)C)[nH]c2-c2ccc3ncsc3c2)n1 [Compound 107] |
| 170.5 to 171.5 °C | Cc1csc(-c2nc(CNC(=O)OCC(C)(C)C)[nH]c2-c2ccc3ncsc3c2)n1 [Compound 196] |
| 217.5 to 218 °C | Cc1csc(-c2nc(CCC(=O)NC(C)C)[nH]c2-c2ccc3ncsc3c2)n1 [Compound 145] |
| 158 to 159.5 °C | CNC(=O)OCc1nc(-c2nc(C)cs2)c(-c2ccc3ncsc3c2)[nH]1 [Compound 235] |
| 201.5 to 202 °C | Cc1csc(-c2nc(CCC(=O)NC(C)(C)C)[nH]c2-c2ccc3ncsc3c2)n1 [Compound 147] |
| 142.5 to 144 °C | Cc1csc(-c2nc(CNC(=O)OCC(C)C)[nH]c2-c2ccc3ncsc3c2)n1 [Compound 194] |
| 179.5 to 182 °C | CCCNC(=O)NCc1nc(-c2nc(C)cs2)c(-c2ccc3ncsc3c2)[nH]1 [Compound 177] |
| 239 to 239.5 °C | CNC(=O)NCc1nc(-c2nc(C)cs2)c(-c2ccc3ncsc3c2)[nH]1 [Compound 238] |
| 156.5 to 161 °C | Cc1csc(-c2nc(CNC(=O)C3CCCC3)[nH]c2-c2ccc3ncsc3c2)n1 [Compound 112] |
| 183 to 184 °C | CCOC(=O)NCc1nc(-c2nc(C)cs2)c(-c2ccc3ncsc3c2)[nH]1 [Compound 187] |
| 154.5 to 155.5 °C | COCCC(=O)NCc1nc(-c2nc(C)cs2)c(-c2ccc3ncsc3c2)[nH]1 [Compound 127] |
| 190.5 to 191.5 °C | CCCCNC(=O)NCc1nc(-c2nc(C)cs2)c(-c2ccc3ncsc3c2)[nH]1 [Compound 179] |
| 229 to 229.5 °C | Cc1csc(-c2nc(CNC(=O)C(C)(C)C)[nH]c2-c2ccc3ncsc3c2)n1 [Compound 109] |
| 186.5 to 190 °C | COCCCC(=O)NCc1nc(-c2nc(C)cs2)c(-c2ccc3ncsc3c2)[nH]1 [Compound 125] |

| melting point | SMILES |
| --- | --- |
| 199 to 201 °C | CCCCCNC(=O)NCc1nc(-c2nc(C)cs2)c(-c2ccc3ncsc3c2)[nH]1 [Compound 182] |
| 161 to 162 °C | CCCCOC(=O)NCc1nc(-c2nc(C)cs2)c(-c2ccc3ncsc3c2)[nH]1 [Compound 193] |
| 211.5 to 212.5 °C | Cc1csc(-c2nc(CNC(=O)CN(C)C)[nH]c2-c2ccc3ncsc3c2)n1 [Compound 114] |
| 174 to 175 °C | C=CCOC(=O)NCc1nc(-c2nc(C)cs2)c(-c2ccc3ncsc3c2)[nH]1 (as salt: HCl) [Compound 192] |
| 144.5 to 145 °C | COCCCNC(=O)CCc1nc(-c2nc(C)cs2)c(-c2ccc3ncsc3c2)[nH]1 [Compound 164] |
| 178.5 to 180 °C | Cc1csc(-c2nc(CNC(=O)NC(C)C)[nH]c2-c2ccc3ncsc3c2)n1 [Compound 178] |
| 200.5 to 203.5 °C | CNCC(=O)NCc1nc(-c2nc(C)cs2)c(-c2ccc3ncsc3c2)[nH]1 [Compound 118] |
| 202 to 204 °C (dec.) | Cc1csc(-c2nc(CNC(=O)OCCCl)[nH]c2-c2ccc3ncsc3c2)n1 [Compound 188] |
| 168.5 to 170.5 °C | COC(=O)CCc1nc(-c2nc(C)cs2)c(-c2ccc3ncsc3c2)[nH]1 [Compound 142] |
| 193 to 194 °C | Cc1csc(-c2nc(CNC(=O)COCCO)[nH]c2-c2ccc3ncsc3c2)n1 [Compound 126] |
| 150 to 150.5 °C | Cc1csc(-c2nc(CNC(=O)CCN(C)C)[nH]c2-c2ccc3ncsc3c2)n1 [Compound 115] |
| 196.5 to 197 °C | Cc1csc(-c2nc(CCC(=O)NC3CC3)[nH]c2-c2ccc3ncsc3c2)n1 [Compound 146] |
| 185 to 185.5 °C | Cc1csc(-c2nc(CNC(=O)C3CCCO3)[nH]c2-c2ccc3ncsc3c2)n1 (stereo not shown) [Compound 130] |
| 215 to 218.5 °C | Cc1csc(-c2nc(CNC(=O)CCO)[nH]c2-c2ccc3ncsc3c2)n1 [Compound 122] |
| 78.5 to 82.5 °C | Cc1csc(-c2nc(CCC(=O)NCCCN(C)C)[nH]c2-c2ccc3ncsc3c2)n1 [Compound 150] |
| 172.5 to 173.5 °C | Cc1csc(-c2nc(CNC(=O)CCC(C)C)[nH]c2-c2ccc3ncsc3c2)n1 [Compound 110] |
